Test results from paper PMC4770715, “LIM kinase inhibitors disrupt mitotic microtubule organization and impair tumor cell proliferation” (Oncotarget, 2015).

Experiments:
Assay in all cases: biochemical
Parameters in all cases: KINOMEscan active-site competition binding, percent of control (100 = no competition)
Details in all cases: competition binding, percent control
[1] = target: T1, DMPK2 (Homo sapiens, UniProt Q6DT37)
T1 construct: gene CDC42BPG

[2] = target: T2, ARK5 (Homo sapiens, UniProt O60285)
T2 construct: gene NUAK1

[3] = target: MELK (Homo sapiens, UniProt Q14680)
[4] = target: CAMK2G (Homo sapiens, UniProt Q13555)
[5] = target: MARK4 (Homo sapiens, UniProt Q96L34)
[6] = target: T3, RPS6KA5(Kin.Dom.1-N-terminal) (Homo sapiens, UniProt O75582)
T3 construct: Kin.Dom.1-N-terminal

[7] = target: T4, JAK3(JH1domain-catalytic) (Homo sapiens, UniProt P52333)
T4 construct: JH1domain-catalytic

[8] = target: T5, YES (Homo sapiens, UniProt P07947)
T5 construct: gene YES1

[9] = target: BLK (Homo sapiens, UniProt P51451)
[10] = target: FRK (Homo sapiens, UniProt P42685)
[11] = target: T6, TRKA (Homo sapiens, UniProt P04629)
T6 construct: gene NTRK1

[12] = target: PKMYT1 (Homo sapiens, UniProt Q99640)
[13] = target: CHEK1 (Homo sapiens, UniProt O14757)
[14] = target: PIK3CA(E545K) (Homo sapiens, UniProt P42336, E545K)
[15] = target: MKNK2 (Homo sapiens, UniProt Q9HBH9)
[16] = target: ZAP70 (Homo sapiens, UniProt P43403)
[17] = target: DMPK (Homo sapiens, UniProt Q09013)
[18] = target: T7, YANK3 (Homo sapiens, UniProt Q86UX6)
T7 construct: gene STK32C

[19] = target: T8, NIM1 (Homo sapiens, UniProt Q8IY84)
T8 construct: gene NIM1K

[20] = target: T9, JNK2 (Homo sapiens, UniProt P45984)
T9 construct: gene MAPK9

[21] = target: SRPK1 (Homo sapiens, UniProt Q96SB4)
[22] = target: T10, DCAMKL1 (Homo sapiens, UniProt O15075)
T10 construct: gene DCLK1

[23] = target: KIT(D816H) (Homo sapiens, UniProt P10721, D816H)
Chain of KIT(D816H) (P10721 whole entry D816H): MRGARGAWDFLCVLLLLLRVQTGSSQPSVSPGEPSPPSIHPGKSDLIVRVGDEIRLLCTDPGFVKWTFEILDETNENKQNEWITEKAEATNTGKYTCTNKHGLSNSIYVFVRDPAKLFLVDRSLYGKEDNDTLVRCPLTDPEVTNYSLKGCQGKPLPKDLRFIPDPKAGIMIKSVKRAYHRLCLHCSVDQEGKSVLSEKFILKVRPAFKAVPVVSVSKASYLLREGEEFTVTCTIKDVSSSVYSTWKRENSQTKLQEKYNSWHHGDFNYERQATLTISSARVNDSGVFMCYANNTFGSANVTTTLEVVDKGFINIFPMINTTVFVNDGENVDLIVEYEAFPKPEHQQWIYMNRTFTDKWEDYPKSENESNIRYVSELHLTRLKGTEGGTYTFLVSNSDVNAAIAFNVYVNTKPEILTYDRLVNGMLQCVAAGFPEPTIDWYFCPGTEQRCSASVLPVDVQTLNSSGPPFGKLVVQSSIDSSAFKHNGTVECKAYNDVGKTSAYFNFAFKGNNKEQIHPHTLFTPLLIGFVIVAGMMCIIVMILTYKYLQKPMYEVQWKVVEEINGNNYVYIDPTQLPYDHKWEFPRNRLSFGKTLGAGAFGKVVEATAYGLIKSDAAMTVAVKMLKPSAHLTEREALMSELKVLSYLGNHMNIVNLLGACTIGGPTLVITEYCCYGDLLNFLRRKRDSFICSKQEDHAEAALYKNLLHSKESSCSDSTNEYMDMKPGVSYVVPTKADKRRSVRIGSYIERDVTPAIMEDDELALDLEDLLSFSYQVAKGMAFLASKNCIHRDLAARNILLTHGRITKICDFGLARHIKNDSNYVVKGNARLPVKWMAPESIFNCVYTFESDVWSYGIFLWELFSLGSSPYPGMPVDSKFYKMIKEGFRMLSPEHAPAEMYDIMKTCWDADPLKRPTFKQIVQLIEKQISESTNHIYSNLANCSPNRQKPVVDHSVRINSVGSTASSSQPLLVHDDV

T4 sequence (P52333 whole entry): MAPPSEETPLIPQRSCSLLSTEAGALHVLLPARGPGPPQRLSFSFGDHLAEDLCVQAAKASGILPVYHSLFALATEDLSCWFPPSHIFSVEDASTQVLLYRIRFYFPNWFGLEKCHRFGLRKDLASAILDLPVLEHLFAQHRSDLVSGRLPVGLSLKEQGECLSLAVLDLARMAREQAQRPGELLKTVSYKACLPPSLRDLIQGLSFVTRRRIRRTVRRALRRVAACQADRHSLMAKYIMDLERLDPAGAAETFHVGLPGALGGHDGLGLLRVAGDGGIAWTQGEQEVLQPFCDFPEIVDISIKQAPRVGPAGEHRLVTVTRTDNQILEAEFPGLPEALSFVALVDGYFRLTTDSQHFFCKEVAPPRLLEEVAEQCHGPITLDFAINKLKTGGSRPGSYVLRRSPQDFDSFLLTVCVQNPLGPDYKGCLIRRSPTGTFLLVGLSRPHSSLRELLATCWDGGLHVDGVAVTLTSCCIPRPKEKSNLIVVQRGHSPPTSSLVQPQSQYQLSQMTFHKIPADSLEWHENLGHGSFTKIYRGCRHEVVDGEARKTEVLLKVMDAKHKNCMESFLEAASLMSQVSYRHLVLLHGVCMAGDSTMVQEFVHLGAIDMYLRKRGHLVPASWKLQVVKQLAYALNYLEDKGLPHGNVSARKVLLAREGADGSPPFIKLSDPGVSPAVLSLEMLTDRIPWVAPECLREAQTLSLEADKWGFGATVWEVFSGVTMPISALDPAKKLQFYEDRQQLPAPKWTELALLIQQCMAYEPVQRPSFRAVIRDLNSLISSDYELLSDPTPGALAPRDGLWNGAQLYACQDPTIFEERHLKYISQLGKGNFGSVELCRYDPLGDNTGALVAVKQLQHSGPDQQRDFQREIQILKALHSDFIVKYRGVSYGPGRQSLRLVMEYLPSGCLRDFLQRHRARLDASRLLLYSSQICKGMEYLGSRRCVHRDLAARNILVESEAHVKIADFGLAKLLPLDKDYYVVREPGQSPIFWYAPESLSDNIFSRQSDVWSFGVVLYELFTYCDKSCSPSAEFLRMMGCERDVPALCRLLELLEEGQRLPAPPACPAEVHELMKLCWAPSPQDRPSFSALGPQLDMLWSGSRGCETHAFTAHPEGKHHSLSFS
T1 sequence (Q6DT37 whole entry): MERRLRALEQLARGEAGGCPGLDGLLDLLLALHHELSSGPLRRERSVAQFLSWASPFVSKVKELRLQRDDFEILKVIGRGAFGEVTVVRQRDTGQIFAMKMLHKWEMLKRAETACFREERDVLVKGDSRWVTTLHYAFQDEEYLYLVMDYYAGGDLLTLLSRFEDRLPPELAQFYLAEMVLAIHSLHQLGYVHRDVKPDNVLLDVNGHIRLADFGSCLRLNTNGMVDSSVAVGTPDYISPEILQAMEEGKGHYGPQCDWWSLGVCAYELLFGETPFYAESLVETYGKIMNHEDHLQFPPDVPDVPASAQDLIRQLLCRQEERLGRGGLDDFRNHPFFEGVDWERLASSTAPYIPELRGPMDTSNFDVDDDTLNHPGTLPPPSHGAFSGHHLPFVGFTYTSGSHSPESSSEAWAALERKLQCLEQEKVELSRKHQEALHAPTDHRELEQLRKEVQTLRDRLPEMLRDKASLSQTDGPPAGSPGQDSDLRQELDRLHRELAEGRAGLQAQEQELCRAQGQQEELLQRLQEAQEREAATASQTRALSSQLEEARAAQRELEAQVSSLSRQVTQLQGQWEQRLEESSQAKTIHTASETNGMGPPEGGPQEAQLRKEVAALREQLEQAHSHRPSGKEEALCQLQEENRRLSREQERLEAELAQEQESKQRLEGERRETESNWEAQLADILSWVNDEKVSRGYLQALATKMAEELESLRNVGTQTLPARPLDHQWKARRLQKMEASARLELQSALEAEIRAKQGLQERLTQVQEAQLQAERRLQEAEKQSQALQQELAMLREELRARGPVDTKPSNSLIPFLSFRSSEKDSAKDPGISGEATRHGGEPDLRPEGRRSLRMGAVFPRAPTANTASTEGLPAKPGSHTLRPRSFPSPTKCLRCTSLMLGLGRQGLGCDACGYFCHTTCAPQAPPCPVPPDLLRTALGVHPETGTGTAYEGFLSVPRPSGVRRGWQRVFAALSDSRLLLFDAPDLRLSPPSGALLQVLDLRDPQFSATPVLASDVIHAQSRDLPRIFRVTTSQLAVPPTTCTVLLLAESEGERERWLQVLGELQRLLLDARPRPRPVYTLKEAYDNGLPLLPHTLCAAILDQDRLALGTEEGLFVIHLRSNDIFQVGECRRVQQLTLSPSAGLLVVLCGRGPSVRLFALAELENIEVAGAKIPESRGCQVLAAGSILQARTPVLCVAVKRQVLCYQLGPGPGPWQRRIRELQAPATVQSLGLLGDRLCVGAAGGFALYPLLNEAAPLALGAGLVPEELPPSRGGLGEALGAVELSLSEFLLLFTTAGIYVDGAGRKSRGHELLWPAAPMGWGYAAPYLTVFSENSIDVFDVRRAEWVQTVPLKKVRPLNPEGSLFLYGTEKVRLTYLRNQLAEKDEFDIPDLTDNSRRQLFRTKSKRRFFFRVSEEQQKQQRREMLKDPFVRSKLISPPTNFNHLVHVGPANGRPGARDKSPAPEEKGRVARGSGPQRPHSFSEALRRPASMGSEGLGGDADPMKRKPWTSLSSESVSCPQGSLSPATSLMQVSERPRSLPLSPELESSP
Chain of ZAP70 (P43403 whole entry): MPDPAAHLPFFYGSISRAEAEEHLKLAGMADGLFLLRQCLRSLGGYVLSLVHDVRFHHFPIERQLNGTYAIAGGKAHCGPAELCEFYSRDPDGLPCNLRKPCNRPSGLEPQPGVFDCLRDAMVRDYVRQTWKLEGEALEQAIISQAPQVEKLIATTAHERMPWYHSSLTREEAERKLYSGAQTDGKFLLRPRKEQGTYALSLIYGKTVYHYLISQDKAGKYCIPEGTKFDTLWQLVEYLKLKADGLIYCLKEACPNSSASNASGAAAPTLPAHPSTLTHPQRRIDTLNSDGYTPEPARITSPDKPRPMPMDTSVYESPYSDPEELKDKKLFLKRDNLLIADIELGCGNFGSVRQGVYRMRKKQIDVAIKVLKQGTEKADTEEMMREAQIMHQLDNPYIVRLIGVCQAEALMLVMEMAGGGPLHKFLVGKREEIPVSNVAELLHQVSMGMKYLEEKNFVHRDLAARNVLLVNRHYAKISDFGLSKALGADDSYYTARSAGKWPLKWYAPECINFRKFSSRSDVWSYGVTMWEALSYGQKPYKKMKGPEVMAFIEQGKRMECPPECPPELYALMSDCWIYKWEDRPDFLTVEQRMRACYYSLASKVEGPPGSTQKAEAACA
Chain of MELK (Q14680 whole entry): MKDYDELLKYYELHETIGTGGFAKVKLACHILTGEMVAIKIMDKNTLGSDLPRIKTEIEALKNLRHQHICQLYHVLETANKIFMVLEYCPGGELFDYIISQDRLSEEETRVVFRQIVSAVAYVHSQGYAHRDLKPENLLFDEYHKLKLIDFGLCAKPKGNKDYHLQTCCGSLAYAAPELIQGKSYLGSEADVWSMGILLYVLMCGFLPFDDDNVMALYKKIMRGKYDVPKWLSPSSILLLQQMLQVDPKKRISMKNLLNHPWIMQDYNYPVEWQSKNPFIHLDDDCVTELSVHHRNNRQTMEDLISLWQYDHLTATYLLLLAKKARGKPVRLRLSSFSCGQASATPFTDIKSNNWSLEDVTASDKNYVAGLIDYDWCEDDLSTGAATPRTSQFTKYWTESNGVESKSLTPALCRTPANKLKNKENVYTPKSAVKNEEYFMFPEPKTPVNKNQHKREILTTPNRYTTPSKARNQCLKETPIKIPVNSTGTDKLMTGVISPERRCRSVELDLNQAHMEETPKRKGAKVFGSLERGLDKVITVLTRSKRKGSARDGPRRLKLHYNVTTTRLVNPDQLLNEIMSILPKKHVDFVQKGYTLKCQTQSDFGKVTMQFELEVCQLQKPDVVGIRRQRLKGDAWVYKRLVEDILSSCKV

SMILES	remaining binding at 10 µM [1] [%]	remaining binding at 10 µM [2] [%]	remaining binding at 10 µM [3] [%]	remaining binding at 10 µM [4] [%]	remaining binding at 10 µM [5] [%]	remaining binding at 10 µM [6] [%]	remaining binding at 10 µM [7] [%]	remaining binding at 10 µM [8] [%]	remaining binding at 10 µM [9] [%]	remaining binding at 10 µM [10] [%]	remaining binding at 10 µM [11] [%]	remaining binding at 10 µM [12] [%]	remaining binding at 10 µM [13] [%]	remaining binding at 10 µM [14] [%]	remaining binding at 10 µM [15] [%]	remaining binding at 10 µM [16] [%]	remaining binding at 10 µM [17] [%]	remaining binding at 10 µM [18] [%]	remaining binding at 10 µM [19] [%]	remaining binding at 10 µM [20] [%]	other results
COc1ccc(-c2cnccc2-c2cnc(NC(=O)C(C)C)s2)c(C(F)(F)F)c1 [CRT0105446, N-{5-[3-(4-Methoxy-2-trifluoromethyl-phenyl)-pyridin-4-yl]-hiazol-2-yl}-isobutyramide]	93	59	100	80	57	89	100	99	100	98	70	100	100	97	68	86	100	100	100	50	remaining binding at 10 µM [21]: 100%; remaining binding at 10 µM [22]: 46%; remaining binding at 10 µM [23]: 89%
Cc1ccc(-c2cnccc2-c2cnc(Nc3ccc(O)cc3)s2)c(Cl)c1 [CRT0105950, 4-{5-[3-(2-Chloro-4-methyl-phenyl)-pyridin-4-yl]-thiazol-2-ylamino}-phenol]	71	49	11	49	4	50	33	66	9.2	59	1	100	88	100	1.8	99	100	100	100	30	remaining binding at 10 µM [21]: 74%; remaining binding at 10 µM [22]: 75%; remaining binding at 10 µM [23]: 46%
